Measured values reported in US9527894B2, “Polymutant tau protein variants and their use for recapitulating human tauopathies” (Universitaet Leipzig, priority 2011, dated 2016).

Experiments:
[1] = test system: MC1-positive (abnormal conformation) tau in SH-SY5Y cell lines; assay: Western blot detection of abnormal tau conformation with MC1 antibody; type: cell-based, human; conditions: undifferentiated neuroblastoma cell lines
Excerpt: FIG. 2: Abnormal tau conformation in polymutant tau cell lines. Poly-mutant tau variants were developed and, using those variants, poly-mutant neuroblastoma cell lines were produced. In those cell lines tau adopting an abnormal/pathological conformation under physiological conditions was observed (MC1 abnormal tau). […] Corroborating recent results that phosphorylation may stabilize abnormal conformation the amount of MC1-positive tau species could be decreased by treating the cells with a tau kinase inhibitor (SRN-003-556). […]
Cells were harvested and protease as well as phosphatase inhibitor cocktail (Sigma-Aldrich) was added. Proteins were extracted by sonification (Hielscher GmbH) and protein concentration was determined using the Roti-Nanoquant Assay (Carl-Roth GmbH). Laemmli sample buffer was added to 60 μg cell lysate. Samples were separated on 10% SDS-polyacrylamide gel and electro transferred onto polyvinylidene fluoride membranes and subsequently immunolabeled with anti-MC1 specific antibody (Peter Davis Department of Pathology, Albert Einstein College of Medicine, 1:100) at 4° C. over night. Secondary antibody was horseradish peroxidase conjugated (Dianova, 1:5000). Specific protein signals were detected using Chemiluminescence Detection Kit (MobiTec) and ChemiDoc-XRS (BioRad). […]

[2] = test system: SH-SY5Y neuroblastoma cell lines; assay: formation of abnormal tau aggregates after differentiation (EGFP-tau imaging); type: cell-based, human; conditions: after induction of differentiation (20 nM staurosporine), without toxic cofactors
Protocol: FIG. 1: Abnormal tau aggregation in a hyper-mutated tau expressing cell line.
(§1) Human neuroblastoma SH-SY5Y cells were grown in DMEM medium, supplemented with 15% fetal bovine serum (FBS), non-essential amino acids, glutamax and penicillin/streptomycine (Invitrogen). Differentiation of SH-SY5Y cells was induced by incubation of the SH-SY5Y cells with 20 nM stauropsprin (Sigma-Aldrich) for 48 hours. For the appropriate experiments differentiated cells were treated with okadaic acid (Sigma-Aldrich) in a concentration of 25 nM or in case of reference compound testing with SRN-003-556 and AR-A014418, respectively.

[3] = test system: SH-SY5Y cells; assay: impedimetric monitoring of differentiated wildtype and poly-mutant tau expressing cells; type: cell-based, human; conditions: differentiated 48 h with 20 nM staurosporine, then monitored 24 h; compared to wildtype tau cells
Protocol: FIG. 5: Differentiation induces neurodegeneration in poly-mutant tau expressing SH-SY5Y cells. Differentiation of SH-SY5Y cells were induced by 48 h incubation with 20 nM staurosporine. Afterwards the cells were impedimetrically monitored for 24 h. […] (n=4, 2D-ANOVA, Bonferoni post-hoc test, *p<0.05, **p<0.01)
as §1
Cells were cultured on self-developed 96-well arrays comprising a gold electrode at the culture surface. The SH-SY5Y cells were differentiated for 48 hours on the 96-well arrays. Impedance spectra were recorded with a self developed multiplexer unit for the 96-well arrays and an impedance Analyser Agilent 4294A (Agilent Technologies) with an alternating voltage of 10 mV with frequencies from 500 Hz to 5 MHz (0 mV bias between electrodes). For each experiment at least five wells were measured in replicate. All impedance magnitude spectra were analysed with a self-developed software IDAT (Impedance Data Analysing Tool). IDAT calculates the impedance of cell-covered electrodes relative to electrodes without cells (relative impedance: (|Z|covered-|Z|cell-free)/|Z|cell-free×100%) and determine the and select the frequency where impedance change caused by the cell layer is maximum (for SH-SY5Y cells on 96-well array at about 100 kHz). […] Experiments were repeated at least three times. […]

[4] = test system: tau mutant expressing SH-SY5Y cells; assay: impedimetric detection of okadaic acid induced artificial hyperphosphorylation; type: cell-based, human; conditions: 25 nM
Protocol: FIG. 4: Impedimetric detection of consequences by okadaic acid induced artificial hyperphosphorylation. […] (n=3, 2D-ANOVA, Bonferoni post-hoc test, *p<0.05, **p<0.01, ***p<0.001)
as §1
(§2) Cells were cultured on self-developed 96-well arrays comprising a gold electrode at the culture surface. The SH-SY5Y cells were differentiated for 48 hours on the 96-well arrays. Impedance spectra were recorded with a self developed multiplexer unit for the 96-well arrays and an impedance Analyser Agilent 4294A (Agilent Technologies) with an alternating voltage of 10 mV with frequencies from 500 Hz to 5 MHz (0 mV bias between electrodes). For each experiment at least five wells were measured in replicate. All impedance magnitude spectra were analysed with a self-developed software IDAT (Impedance Data Analysing Tool). […]

[5] = test system: tauopathy mouse model; conditions: LeCorre et al. 2006, Selenica et al. 2007; cited from earlier work
[6] = test system: tau hyperphosphorylation; conditions: artificial hyperphosphorylation using toxic compounds like okadaic acid; cited from earlier work
[7] = test system: Hyper-tau expressing SH-SY5Y cells; assay: impedance spectroscopy based functional tau pathology in vitro screening assay (Hyper-tau cells); type: cell-based, human
Protocol: FIG. 6: Use of Hyper-tau cells for quantitative detection of compound efficiency. Taking the developed Hyper-tau cells, where pathology was induced by differentiation (20 nM staurosporine for 48 h) in comparison to the wildtype tau expressing cells (physiological condition) the efficiency of potential active pharmaceutical ingredients could be quantified.
Human neuroblastoma SH-SY5Y cells were grown in DMEM medium, supplemented with 15% fetal bovine serum (FBS), non-essential amino acids, glutamax and penicillin/streptomycine (Invitrogen). Differentiation of SH-SY5Y cells was induced by incubation of the SH-SY5Y cells with 20 nM stauropsprin (Sigma-Aldrich) for 48 hours. […]
as §2, with “The SH-SY5Y cells were differentiated for 48 hours on the 96-well arrays.” left out

Compound: Hyper-tau: 5× polymutant tauK257T/ΔK280/P301L/V337M/R406W, SEQ ID NO:3
- MC1-detected misfolded tau species [1]: abnormally conformed, misfolded tau species
- formation of abnormal tau aggregates [2]: formation of abnormal tau aggregates
- relative impedance of tau variant expressing cells [3]: still more substantial decrease of relative impedance

Compound: K257Tq: 4× polymutant tauK257T/P301L/V337M/R406W
- relative impedance of tau variant expressing cells [3]: lower impedance values

Compound: C=C1[C@@H](O)[C@@H]2O[C@]3(CC[C@H](/C=C/[C@@H](C)[C@@H]4CC(C)=C[C@@]5(O[C@H](C[C@@](C)(O)C(=O)O)CC[C@H]5O)O4)O3)CC[C@H]2O[C@@H]1[C@@H](O)C[C@H](C)[C@H]1O[C@@]2(CCCCO2)CC[C@H]1C [okadaic acid]
- impedimetric effect of okadaic acid incubation ([4]; 3 h and 6 h): Hyper-tau mutant specific degenerative effect
- impedimetric effect of okadaic acid incubation ([4]; after 24 h): massive cell damage in all tau mutants

Compound: P301L: single mutant tau (P301L)
- relative impedance of tau variant expressing cells [3]: same impedimetric characteristic like the wildtype tau expressing cells

Compound: COc1ccc(CNC(=O)Nc2ncc([N+](=O)[O-])s2)cc1 [AR-A014418]
- therapeutic effect in tauopathy mouse model [5]: does not
- therapeutic effect in okadaic acid based tau pathology in vitro assays [6]: therapeutic effect
- side effects detected by impedimetric monitoring ([7]; 6 h and 12 h, 0.1 nM-100 nM): toxic effects
- therapeutic effect on Hyper-tau induced pathology (impedance) ([7]; Hyper-tau cells differentiated with 20 nM staurosporine for 48 h, compared to wildtype tau cells): no therapeutic effect
